Series [1] concerns the target T1, SCN5A (Rattus norvegicus, UniProt P15389).
T1 construct: Heart sections ([…] thickness) were prepared using a −20° C. cryostat and thaw-mounted onto gelatin-coated slides; from tissue; host or cells: rat heart (myocardium) cryosections
The series is described as follows: Ex vivo F-18 autoradiography of rat myocardium. It counts as binding. As to the method:
Heart sections ([…] thickness) were prepared using a −20° C. cryostat and thaw-mounted onto gelatin-coated slides. The slides were stored at −20° C. until the day of the experiment. […] Individual images of sections were cropped using ImageJ with no additional adjustment to color levels/thresholds. The experimental setup was designed such that both baseline and competition experiments contained the same amount of radioactivity and were imaged on the same screen. […] For variation of washing times, the incubation was held constant at 15 min.

Series [2] addresses T2, SCN5A (Homo sapiens, UniProt Q14524).
T2 construct: Non-failing human donor heart samples were compared to explanted tissue from patients who had suffered from heart failure; from tissue; host or cells: human left ventricular myocardium (non-failing donor hearts and explanted DCM-failing hearts)
The series is described as follows: Ex vivo autoradiography of human heart tissue, self-displacement dose-response. It counts as binding. The note with it: self-inhibition, modified Cheng-Prusoff equation. From the text: Non-failing human donor heart samples were compared to explanted tissue from patients who had suffered from heart failure due to idiopathic dilated cardiomyopathy (DCM) and required cardiac transplantation, as shown in FIGS. 4A-4B (see e.g., Japp et al, J. Am. Coll. Cardiol. 2016, 67:2996-3010).
To exclude that the reduced signal was the result of a decrease in affinity in diseased vs. healthy tissue and confirm a deficit in channel density, dose-response experiments were performing using N-(2,6-dimethylphenyl)-2-(ethyl(2-fluoroethyl)amino)acetamide as the competition ligand. Using the modified Cheng-Prusoff equation for self-inhibition, these measurements allowed for the determination of Kd-values for the groups NF1 and F1, as shown in FIG. 4B. […] A ˜30% reduction in Bmax was observed.

Series [3] relates to rat myocardium. The series is described as follows: Rodent PET-CT imaging of the myocardium, single bolus and bolus+infusion, with lidocaine block. It counts as in vivo. How it is done: Male Sprague-Dawley rats (400-500 g) were anesthetized with inhalational isoflurane (Forane) (3% in a carrier of 1.5-2 L/min medical oxygen for induction and 2% isoflurane for maintenance of anesthesia during the scan). Lateral tail vein catheters were placed for intravenous (i.v.) injection of the compounds. Two rats were arranged head-to-head in a Triumph Trimodality PET/CT/SPECT scanner (Gamma Medica, Northridge, Calif.) or a MicroPET P4 scanner. […] Dynamic PET acquisition was performed over 45 min and was followed by computed tomography (CT) for anatomic coregistration and attenuation correction. […] Reconstructed images were exported from the scanner in DICOM format along with an anatomic CT for rodent studies. These files were imported to AMIDE and Gaussian filtered (kernel size=15, fwhm=1.5 mm). Regions of interest (ROIs) were drawn manually at the lung and myocardium guided by high-resolution CT structural images and summed PET data. Time-activity-curves (TACs) were exported in terms of decay corrected activity per unit volume at specified time points with gradually increasing intervals.

Series [4] concerns myocardium of non-human primates. The series is described as follows: PET/MR imaging of non-human primates. It counts as in vivo. How it is done: Two female baboons (Papio anubis, weight=15.2±1.6 kg) were deprived of food for 12 h prior to the study. Anesthesia was induced with intramuscular ketamine (10 mg/kg) and xylazine (0.5 mg/kg). After endotracheal intubation, the baboons were catheterized antecubitally for injection of the radiolabeled compound. Anesthesia was maintained using isoflurane (1-1.5%, 100% oxygen, 1 L/min) during the scan, and ketamine/xylazine effects were reversed with yobine (0.11 mg/kg, i.m.) before image acquisition. Vital signs, including heart rate, respiration rate, blood pressure, O2 saturation, and end tidal CO2, were monitored continuously and recorded every 15 min. Simultaneous PET/MR data were acquired using a Siemens Biograph mMR system (Siemens Healthcare, Erlangen, Germany). Each animal underwent a baseline and a blocking scan on two separate days. MR body imaging was performed with real-time respiratory bellow gating and using the body matrix coil and the built-in spine coil as the receiving coil elements. High-resolution anatomical T1-weighted, dual echo, gradient echo sequence was acquired with the following parameters: TR=194 ms, TE1/TE2=1.23/2.46 ms, matrix size 256×256, FOV=35 cm, phase FOV 65.6% (in-plane resolution=1.4 mm), 4 mm slice thickness, and 80 slices. For the purpose of MR-based attenuation correction of the PET data, a T1-weighted, 2-point Dixon 3D volumetric interpolated breath-hold examination (VIBE) scan was obtained. PET data were obtained using a single-bed position with an axial field of view of 25.8 cm, and a transverse field of view of 59.4 cm. PET data were acquired dynamically for 60 min (bolus injection of N-(2,6-dimethylphenyl)-2-(ethyl(2-(fluoro-^18F)ethyl)amino)acetamide) or 90 min (bolus/infusion of N-(2,6-dimethylphenyl)-2-(ethyl(2-(fluoro-^18F)ethyl)amino)acetamide) after intravenous administration of N-(2,6-dimethylphenyl)-2-(ethyl(2-(fluoro-^18F)ethyl)amino)acetamide (5.0±0.2 mCi bolus or 4 mCi bolus+4 mCi infusion). […] Standard uptake unit (SUV) was calculated as the mean radioactivity per injected dose per weight.

SMILES strings stand for the structures. “Also recorded” adds a separate entry of the source.

T1 sequence (P15389 whole entry): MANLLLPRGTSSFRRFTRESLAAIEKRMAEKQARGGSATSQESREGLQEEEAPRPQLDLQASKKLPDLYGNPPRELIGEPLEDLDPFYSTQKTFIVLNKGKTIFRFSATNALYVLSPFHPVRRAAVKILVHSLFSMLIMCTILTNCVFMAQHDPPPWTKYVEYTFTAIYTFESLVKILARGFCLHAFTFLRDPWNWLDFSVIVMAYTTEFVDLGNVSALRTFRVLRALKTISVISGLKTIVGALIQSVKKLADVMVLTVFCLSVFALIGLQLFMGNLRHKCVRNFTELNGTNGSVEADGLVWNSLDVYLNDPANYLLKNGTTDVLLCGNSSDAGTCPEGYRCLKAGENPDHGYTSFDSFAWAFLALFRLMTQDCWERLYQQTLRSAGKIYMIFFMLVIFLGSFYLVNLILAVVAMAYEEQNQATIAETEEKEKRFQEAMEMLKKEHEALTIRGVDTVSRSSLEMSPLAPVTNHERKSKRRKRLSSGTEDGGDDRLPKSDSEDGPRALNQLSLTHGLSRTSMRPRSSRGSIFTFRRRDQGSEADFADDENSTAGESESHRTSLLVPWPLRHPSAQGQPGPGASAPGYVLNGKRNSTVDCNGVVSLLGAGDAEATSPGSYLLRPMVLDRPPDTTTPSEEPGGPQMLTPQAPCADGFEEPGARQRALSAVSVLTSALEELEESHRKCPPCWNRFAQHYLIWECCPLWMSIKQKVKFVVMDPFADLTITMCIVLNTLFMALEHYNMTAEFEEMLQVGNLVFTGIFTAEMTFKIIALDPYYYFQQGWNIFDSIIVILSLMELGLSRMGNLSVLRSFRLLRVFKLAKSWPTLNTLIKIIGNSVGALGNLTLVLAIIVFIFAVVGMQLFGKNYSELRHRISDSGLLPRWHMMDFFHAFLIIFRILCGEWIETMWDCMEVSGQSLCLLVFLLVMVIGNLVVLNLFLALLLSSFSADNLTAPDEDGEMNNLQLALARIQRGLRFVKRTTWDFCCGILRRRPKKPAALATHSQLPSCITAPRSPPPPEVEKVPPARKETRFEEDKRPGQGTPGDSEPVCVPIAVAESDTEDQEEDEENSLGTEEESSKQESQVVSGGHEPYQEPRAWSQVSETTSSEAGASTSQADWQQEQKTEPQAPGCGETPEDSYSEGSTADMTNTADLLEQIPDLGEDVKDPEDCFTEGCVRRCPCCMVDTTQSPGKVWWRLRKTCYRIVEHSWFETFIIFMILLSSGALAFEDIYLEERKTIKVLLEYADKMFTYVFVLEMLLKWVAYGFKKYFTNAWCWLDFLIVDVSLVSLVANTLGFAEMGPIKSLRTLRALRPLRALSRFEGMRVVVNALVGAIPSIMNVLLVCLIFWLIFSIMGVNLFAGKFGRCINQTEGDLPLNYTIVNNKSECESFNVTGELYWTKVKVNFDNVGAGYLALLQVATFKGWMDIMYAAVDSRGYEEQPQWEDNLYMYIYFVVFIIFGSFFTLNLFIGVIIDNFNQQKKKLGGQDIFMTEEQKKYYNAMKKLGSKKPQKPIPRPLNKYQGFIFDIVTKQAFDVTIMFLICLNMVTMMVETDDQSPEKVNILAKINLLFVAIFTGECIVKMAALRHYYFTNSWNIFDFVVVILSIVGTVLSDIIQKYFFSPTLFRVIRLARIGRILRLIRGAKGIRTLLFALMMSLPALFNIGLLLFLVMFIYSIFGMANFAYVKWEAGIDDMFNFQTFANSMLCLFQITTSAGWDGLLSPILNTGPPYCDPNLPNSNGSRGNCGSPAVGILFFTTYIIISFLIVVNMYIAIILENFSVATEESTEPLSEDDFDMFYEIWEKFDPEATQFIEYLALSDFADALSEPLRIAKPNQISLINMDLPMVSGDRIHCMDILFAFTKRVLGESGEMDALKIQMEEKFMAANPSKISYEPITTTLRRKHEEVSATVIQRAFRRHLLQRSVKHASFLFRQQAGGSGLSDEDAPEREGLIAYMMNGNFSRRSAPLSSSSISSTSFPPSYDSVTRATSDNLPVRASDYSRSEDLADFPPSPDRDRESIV
T2 sequence (Q14524 whole entry): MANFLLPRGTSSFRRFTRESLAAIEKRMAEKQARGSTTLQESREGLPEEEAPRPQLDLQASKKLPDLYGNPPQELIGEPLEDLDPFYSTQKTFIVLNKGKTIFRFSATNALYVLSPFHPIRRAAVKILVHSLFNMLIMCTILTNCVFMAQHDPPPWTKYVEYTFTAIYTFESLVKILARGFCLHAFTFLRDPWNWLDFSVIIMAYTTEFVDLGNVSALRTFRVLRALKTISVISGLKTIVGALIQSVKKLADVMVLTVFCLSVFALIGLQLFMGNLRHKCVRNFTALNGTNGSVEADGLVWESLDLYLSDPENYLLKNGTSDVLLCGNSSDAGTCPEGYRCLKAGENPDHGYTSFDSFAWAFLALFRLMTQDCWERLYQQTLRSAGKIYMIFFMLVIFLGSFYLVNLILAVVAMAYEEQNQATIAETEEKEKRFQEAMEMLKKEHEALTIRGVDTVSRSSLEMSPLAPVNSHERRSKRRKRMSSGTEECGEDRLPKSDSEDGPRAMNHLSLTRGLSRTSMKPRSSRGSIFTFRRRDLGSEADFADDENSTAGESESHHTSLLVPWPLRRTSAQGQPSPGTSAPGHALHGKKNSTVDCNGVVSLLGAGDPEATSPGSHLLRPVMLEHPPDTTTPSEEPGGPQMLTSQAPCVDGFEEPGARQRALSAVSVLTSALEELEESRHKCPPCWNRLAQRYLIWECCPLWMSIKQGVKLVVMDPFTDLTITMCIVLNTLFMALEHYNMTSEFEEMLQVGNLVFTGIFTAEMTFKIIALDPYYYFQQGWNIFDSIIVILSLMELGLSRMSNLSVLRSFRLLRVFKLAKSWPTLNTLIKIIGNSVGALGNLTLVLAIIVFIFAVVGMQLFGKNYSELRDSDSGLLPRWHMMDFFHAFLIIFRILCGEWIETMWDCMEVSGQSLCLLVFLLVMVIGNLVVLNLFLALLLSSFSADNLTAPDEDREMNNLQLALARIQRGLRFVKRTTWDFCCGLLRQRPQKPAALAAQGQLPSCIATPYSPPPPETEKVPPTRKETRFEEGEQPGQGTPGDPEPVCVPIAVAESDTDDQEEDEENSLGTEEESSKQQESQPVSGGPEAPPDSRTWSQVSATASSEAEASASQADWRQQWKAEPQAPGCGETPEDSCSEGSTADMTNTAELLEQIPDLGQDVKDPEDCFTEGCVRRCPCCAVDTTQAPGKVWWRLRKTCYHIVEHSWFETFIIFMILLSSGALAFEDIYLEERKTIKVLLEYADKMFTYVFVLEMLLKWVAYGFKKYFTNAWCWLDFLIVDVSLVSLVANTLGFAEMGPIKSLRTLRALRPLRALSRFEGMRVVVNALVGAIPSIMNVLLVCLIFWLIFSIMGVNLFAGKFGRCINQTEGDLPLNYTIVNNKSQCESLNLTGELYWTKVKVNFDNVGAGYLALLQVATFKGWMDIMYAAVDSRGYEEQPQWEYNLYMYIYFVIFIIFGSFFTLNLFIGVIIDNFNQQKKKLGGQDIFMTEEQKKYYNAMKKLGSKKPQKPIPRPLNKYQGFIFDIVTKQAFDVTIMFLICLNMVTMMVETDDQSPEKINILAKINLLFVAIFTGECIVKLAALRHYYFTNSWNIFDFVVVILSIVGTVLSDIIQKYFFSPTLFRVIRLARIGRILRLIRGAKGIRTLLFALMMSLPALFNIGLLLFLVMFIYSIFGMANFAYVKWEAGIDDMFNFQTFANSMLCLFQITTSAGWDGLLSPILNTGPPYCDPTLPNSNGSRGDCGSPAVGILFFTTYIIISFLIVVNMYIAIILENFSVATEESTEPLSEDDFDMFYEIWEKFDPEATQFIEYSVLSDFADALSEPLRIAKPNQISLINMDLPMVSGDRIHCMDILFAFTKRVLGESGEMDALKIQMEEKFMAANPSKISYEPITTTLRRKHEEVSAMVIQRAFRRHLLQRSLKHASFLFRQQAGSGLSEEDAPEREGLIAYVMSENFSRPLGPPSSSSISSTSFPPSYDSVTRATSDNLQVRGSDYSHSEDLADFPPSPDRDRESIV

As for `CCN(CCF)CC(=O)Nc1c(C)cccc1C` [Example 1, N-(2,6-dimethylphenyl)-2-(ethyl(2-fluoroethyl)amino)acetamide], in series [1] (competition ligands at the same concentration against the 18F tracer), the “level of non-specific / non-displaceable binding (BNS) as competition ligand” value was “same level of BNS as lidocaine; also recorded: same level of non-displaceable binding”. Also, the “Kd-values, non-failing (NF1) vs failing (F1) left ventricular tissue” value in series [2] was “no difference in Kd-values between the groups”.
For the molecule `CCN(CC[18F])CC(=O)Nc1c(C)cccc1C` [Example 2, N-(2,6-dimethylphenyl)-2-(ethyl(2-(fluoro-^18F)ethyl)amino)acetamide], in series [1] (after 1 min wash, incubation 15 min), the “reduction of total binding on wash-out” value is 50%. The “incubation time after which specific binding (BS) reached a constant level” value in series [1] (incubation times 1, 5, 10, 20 min, wash 1 min) is 5 min. For the same molecule, the “specific binding (BS) as share of overall binding” value in series [1] (rat myocardial slices 20 μm, self-competition with excess (500 μM) unlabeled compound) is on record as roughly 70%. The “residence time (t1/2^−1) of the radiotracer” value in series [3] (from time course of signal reduction after lidocaine, estimation) was roughly 1 min⁻¹. In addition, the “time to stable baseline signal” value in series [3] (i.v. bolus ~150 μCi followed by constant infusion ~300 μCi over 60 min) was found to be 20 min. Also, the “time for tracer bolus to reach peak signal” value in series [3] (single bolus) amounted to 3 min. Also, in series [3] (single i.v. bolus), the “time after bolus injection at which blood pool had cleared and myocardial signal was revealed” value was 3 min. Further, the myocardial baseline signal entry in series [3] (single i.v. bolus, healthy rats) is on record as “up to 2 % ID/cc”. The estimated residence time in series [4] (bolus 4 mCi + infusion 4 mCi over 90 min, lidocaine challenge) is 5 min⁻¹. Also, the “time after which blood background cleared” value in series [4] (single bolus, healthy baboon) was in the range of 2 to 3 min.
With `CCN(CC)CC(=O)Nc1c(C)cccc1C` [lidocaine, reference compound], the “time to plateau of full block after the pharmacological dose” value in series [3] (5 mg/kg lidocaine) is listed as 3 minutes. The “reduction of tracer signal by in-scan lidocaine challenge” value in series [3] (5 mg/kg lidocaine i.v., bolus+infusion paradigm) was “complete reduction of the radiolabeled compound signal to background level”. Moreover, the “lidocaine dose from which reduction of myocardial tracer signal was observed” value in series [3] (i.v. 5 min before tracer, compared to vehicle) worked out at 0.1 mg/kg. In addition, the “in vivo IC50 at the myocardium” value in series [3] (in-scan lidocaine challenges 0.5-5 mg/kg i.v., bolus+infusion, estimation) is given as roughly 0.7 mg/kg. Also, the “effect of lidocaine pre-block on myocardial tracer signal” value in series [4] (5 mg/kg i.v. lidocaine 5 min prior to tracer) is listed as “blocked the myocardial signal; also recorded: suppressed the myocardial signal to background levels”.
